Among the targets are Carbonic anhydrase 6 (Homo sapiens, UniProt P23280); Carbonic anhydrase 12 (Homo sapiens, UniProt O43570); Carbonic anhydrase 4 (Homo sapiens, UniProt P22748); Carbonic anhydrase 7 (Homo sapiens, UniProt P43166); Carbonic anhydrase 3 (Homo sapiens, UniProt P07451); Carbonic anhydrase 14 (Homo sapiens, UniProt Q9ULX7); Carbonic anhydrase 13 (Mus musculus, UniProt Q9D6N1).
The target of assay [1] is Carbonic anhydrase 5B, mitochondrial (Homo sapiens, UniProt Q9Y2D0).
Assay [2] concerns the target Carbonic anhydrase 5A, mitochondrial (Homo sapiens, UniProt P35218).
Another assay addresses T1, Carbonic anhydrase 15 (Mus musculus, UniProt Q99N23).
T1 sequence (Q99N23 whole entry): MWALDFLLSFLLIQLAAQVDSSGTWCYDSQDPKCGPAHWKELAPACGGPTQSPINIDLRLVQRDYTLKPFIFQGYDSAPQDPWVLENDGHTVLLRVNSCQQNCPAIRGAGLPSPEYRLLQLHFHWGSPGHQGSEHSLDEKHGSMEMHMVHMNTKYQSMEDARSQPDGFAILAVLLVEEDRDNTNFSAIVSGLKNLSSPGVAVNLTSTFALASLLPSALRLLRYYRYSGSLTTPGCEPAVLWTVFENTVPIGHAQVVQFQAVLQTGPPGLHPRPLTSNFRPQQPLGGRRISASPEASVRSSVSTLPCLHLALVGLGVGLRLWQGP

The text below walks through data of ChEMBL document CHEMBL1155543 (Bioorg Med Chem Lett, 2010).

Sequence of Carbonic anhydrase 3 (P07451 whole entry): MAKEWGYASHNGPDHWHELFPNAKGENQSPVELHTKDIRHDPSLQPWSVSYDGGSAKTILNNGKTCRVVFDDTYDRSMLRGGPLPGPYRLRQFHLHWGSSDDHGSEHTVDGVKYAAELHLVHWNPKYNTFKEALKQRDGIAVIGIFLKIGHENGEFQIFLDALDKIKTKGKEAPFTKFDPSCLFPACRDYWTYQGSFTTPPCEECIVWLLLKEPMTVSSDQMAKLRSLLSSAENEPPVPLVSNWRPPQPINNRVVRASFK
Sequence of Carbonic anhydrase 7 (P43166 whole entry): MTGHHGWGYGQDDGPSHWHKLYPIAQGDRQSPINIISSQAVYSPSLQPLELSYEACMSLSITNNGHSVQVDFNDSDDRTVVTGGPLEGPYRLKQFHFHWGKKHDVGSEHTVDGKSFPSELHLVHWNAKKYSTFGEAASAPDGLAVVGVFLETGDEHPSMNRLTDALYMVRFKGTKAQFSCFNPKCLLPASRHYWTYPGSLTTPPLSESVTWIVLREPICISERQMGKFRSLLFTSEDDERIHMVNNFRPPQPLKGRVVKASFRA
Sequence of Carbonic anhydrase 5A, mitochondrial (P35218 whole entry): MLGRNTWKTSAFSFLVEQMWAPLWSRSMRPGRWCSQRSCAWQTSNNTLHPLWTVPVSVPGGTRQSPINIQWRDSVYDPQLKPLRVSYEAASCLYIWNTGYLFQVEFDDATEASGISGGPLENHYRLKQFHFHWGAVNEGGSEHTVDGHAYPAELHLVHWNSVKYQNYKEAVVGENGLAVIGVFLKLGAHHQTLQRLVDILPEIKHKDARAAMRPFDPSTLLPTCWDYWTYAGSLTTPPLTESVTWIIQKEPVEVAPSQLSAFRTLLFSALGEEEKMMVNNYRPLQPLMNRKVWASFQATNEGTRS
Sequence of Carbonic anhydrase 6 (P23280 whole entry): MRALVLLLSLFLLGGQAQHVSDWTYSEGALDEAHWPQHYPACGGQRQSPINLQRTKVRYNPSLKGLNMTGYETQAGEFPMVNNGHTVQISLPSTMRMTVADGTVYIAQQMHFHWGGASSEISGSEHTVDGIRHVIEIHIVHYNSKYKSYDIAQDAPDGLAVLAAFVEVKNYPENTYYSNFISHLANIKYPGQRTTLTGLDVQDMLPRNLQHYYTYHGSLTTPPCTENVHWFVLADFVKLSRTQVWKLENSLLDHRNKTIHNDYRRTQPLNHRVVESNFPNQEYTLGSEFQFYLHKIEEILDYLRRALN
Sequence of Carbonic anhydrase 12 (O43570 whole entry): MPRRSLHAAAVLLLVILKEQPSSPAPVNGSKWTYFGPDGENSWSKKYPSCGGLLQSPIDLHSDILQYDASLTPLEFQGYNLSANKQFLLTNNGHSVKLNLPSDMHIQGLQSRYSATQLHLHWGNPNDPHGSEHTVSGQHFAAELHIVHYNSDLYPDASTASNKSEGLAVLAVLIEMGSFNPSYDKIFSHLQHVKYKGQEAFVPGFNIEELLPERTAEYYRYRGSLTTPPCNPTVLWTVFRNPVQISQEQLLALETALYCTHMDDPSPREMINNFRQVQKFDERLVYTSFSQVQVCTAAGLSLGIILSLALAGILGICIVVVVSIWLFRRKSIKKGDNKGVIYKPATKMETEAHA
Sequence of Carbonic anhydrase 5B, mitochondrial (Q9Y2D0 whole entry): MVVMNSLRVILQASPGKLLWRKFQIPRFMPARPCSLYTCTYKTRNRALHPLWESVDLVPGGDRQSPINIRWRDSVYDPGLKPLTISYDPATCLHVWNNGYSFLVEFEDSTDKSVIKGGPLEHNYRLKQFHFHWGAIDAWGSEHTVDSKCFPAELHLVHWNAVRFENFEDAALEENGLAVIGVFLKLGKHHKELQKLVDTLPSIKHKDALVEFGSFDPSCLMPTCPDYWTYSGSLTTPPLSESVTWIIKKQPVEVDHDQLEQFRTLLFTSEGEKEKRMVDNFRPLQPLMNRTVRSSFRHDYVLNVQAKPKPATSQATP
Sequence of Carbonic anhydrase 4 (P22748 whole entry): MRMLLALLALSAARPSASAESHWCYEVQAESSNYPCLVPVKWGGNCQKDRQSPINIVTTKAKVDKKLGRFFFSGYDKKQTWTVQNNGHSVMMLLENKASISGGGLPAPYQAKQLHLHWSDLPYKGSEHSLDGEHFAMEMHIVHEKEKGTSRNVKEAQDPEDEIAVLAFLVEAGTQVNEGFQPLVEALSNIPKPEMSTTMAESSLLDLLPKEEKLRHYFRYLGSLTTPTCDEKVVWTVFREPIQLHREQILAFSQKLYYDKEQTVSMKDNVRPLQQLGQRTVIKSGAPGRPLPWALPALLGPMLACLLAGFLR
Sequence of Carbonic anhydrase 14 (Q9ULX7 whole entry): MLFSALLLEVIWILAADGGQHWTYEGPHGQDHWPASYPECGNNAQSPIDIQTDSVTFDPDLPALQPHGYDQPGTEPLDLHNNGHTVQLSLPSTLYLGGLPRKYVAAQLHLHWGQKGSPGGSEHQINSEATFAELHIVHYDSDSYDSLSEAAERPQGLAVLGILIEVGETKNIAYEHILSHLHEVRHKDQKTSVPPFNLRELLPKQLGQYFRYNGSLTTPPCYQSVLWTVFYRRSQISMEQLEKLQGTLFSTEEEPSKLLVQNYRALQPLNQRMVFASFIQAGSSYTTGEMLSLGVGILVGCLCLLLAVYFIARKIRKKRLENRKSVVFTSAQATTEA
Sequence of Carbonic anhydrase 13 (Q9D6N1 whole entry): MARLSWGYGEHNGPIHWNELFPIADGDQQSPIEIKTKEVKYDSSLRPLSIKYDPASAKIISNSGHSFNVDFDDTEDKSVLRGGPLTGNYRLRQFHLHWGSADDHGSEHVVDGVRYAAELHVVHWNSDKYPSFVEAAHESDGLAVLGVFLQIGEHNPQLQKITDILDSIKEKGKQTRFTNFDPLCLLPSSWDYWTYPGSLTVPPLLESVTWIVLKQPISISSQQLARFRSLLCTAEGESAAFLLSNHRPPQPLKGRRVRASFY

Consider `CC1(C)OB(c2ccc(NS(N)(=O)=O)cc2)OC1(C)C`, for which the Ki amounted to 0.749 µM on Carbonic anhydrase 6; 0.075 µM in assay [1]; 0.0089 µM on Carbonic anhydrase 12; 8.62 µM on Carbonic anhydrase 4; 0.084 µM at Carbonic anhydrase 7; 0.087 µM in [2]. For the same compound, the Ki at Carbonic anhydrase 3 stood at 8.77 µM; at Carbonic anhydrase 14, 0.0071 µM; on Carbonic anhydrase 13, 0.994 µM; at Carbonic anhydrase 15 it was 0.089 µM.
Compound `NS(N)(=O)=O` [SULFAMIDE] had an inhibition constant Ki at Carbonic anhydrase 3 of 1090 µM.
On the same count and under the same terms, then `CC1(C)O[C@@H]2[C@@H](CO[C@@]3(CNS(N)(=O)=O)OC(C)(C)O[C@@H]23)O1`, with 4000 µM.
